Assay results taken from patent US10960010B2, “Pharmaceutical compositions for sustained or delayed release” (INTRA-CELLULAR THERAPIES, INC., priority 2013, dated 2021).
“Also recorded” adds a separate entry of the source.

System: patients with schizophrenia
Assay: Randomized, double-blind, placebo-controlled in-patient trial, 4-week treatment, PANSS
Assay type: in vivo, human
Protocol: For purposes of this example, Compound A refers to the compound of Formula I wherein X is —N(CH3)— and Y is —C(O)—; tosylate salt unless otherwise indicated. A randomized, double-blind, placebo-controlled, in-patient trial is performed. Four treatment arms, 4-week treatment duration, QAM dosing are performed as follows: 60 mg of Compound A; 120 mg of Compound A; positive control (4 mg Risperidone); and placebo. The primary outcome is measured by the change from baseline on Positive and Negative Syndrome Scale (PANSS) Total Score at Day 28. Secondary measures explore key differentiating features.
60 mg Compound A Treatment Arm receives 60 mg of Compound A once daily for 28 days. 120 mg Compound A Treatment Arm receives 60 mg Compound A on Study Day 1 followed by 120 mg Compound A once daily for 27 days. Risperidone Treatment Arm receives 2 mg risperidone on Study Day 1 followed by 4 mg risperidone once daily for 27 days. Placebo Treatment Arm receives placebo once daily for 28 days. All doses are administered in the morning with breakfast.
Key inclusion criteria: Clinical diagnosis of schizophrenia according to DSM-IV-TR is confirmed by modified SCID-CT. Screening Brief Psychiatric […] Scale (BPRS) score of 40 or greater (18-items scored 1-7 each). Minimum score of 4 or higher on at least two of the following positive items: suspiciousness, conceptual disorganization, hallucinatory behavior, unusual thought content. Current exacerbated episode lasts no longer than 4 weeks. Sufficient history and/or independent reporter must verify that current state is an exacerbated state for the individual. Prior response to antipsychotic therapy within the last 5 years, defined as clinically significant and documented decrease in delusions and/or hallucinations during a documented exacerbated episode (and at least 3 months prior exposure to antipsychotic therapy).
The trial has a high subject completion rate (74%) compared to an average of 62% completion rate in other 4-week antipsychotic trials. 19% discontinues during the study treatment period (during Day 1-28). 7% completes study treatment through Day 28, but are lost to follow up.

[1] = 60 mg, sub-group of patients with depression at baseline

CN1CCN2c3c(cccc31)[C@@H]1CN(CCCC(=O)c3ccc(F)cc3)CC[C@@H]12 [Compound A]
Prosocial PANSS Factor change from baseline compared to placebo (60 mg): significantly improve
general psychopathology subscale of the PANSS (60 mg): statistically significantly improves
items on the negative symptom and general psychopathology subscales consistent with improved social function (60 mg): improves certain items
positive symptom subscale of the PANSS (60 mg): statistically significantly improves
Effect Size (Total PANSS) (60 mg Compound A): 0.4
LS Mean Difference from Placebo (Total PANSS, Day 28) (60 mg Compound A): −5.8
LS Mean Change from Baseline on Day 28 Total PANSS (±SE) using MMRM/ITT (60 mg Compound A (tosylate) once daily in the morning, 28 days, N = 76): −13.2 ± 1.7
PANSS total score, result in words (60 mg once daily in the morning, after 28 days of treatment): demonstrates antipsychotic efficacy; also recorded: statistically significant and clinically meaningful decrease
hyperprolactinemia, EPS/akathisia, weight gain, cardiovascular safety (60 mg once daily, 28 days): does not cause hyperprolactinemia, EPS/akathisia, weight gain or cardiovascular safety issues
negative symptoms (PANSS Negative Symptom Sub-Scale) [1]: robustly improves
total PANSS [1]: robustly improves
negative symptoms (PANSS Negative Symptom Sub-Scale) (60 mg, subgroup of patients with prominent negative symptoms at baseline): improves negative symptoms qualitatively
depression as measured by the CDSS (60 mg, subgroup with CDSS score >6 at baseline): significantly reduces depression
Effect Size (Total PANSS) (120 mg Compound A): 0.1
LS Mean Difference from Placebo (Total PANSS, Day 28) (120 mg Compound A): −0.9
LS Mean Change from Baseline on Day 28 Total PANSS (±SE) using MMRM/ITT (120 mg Compound A (60 mg on Day 1, then 120 mg once daily 27 days), N = 80): −8.3 ± 1.7

Cc1nc2n(c(=O)c1CCN1CCC(c3noc4cc(F)ccc34)CC1)CCCC2 [Risperidone, reference compound]
Effect Size (Total PANSS) (4 mg Risperidone): 0.4
LS Mean Difference from Placebo (Total PANSS, Day 28) (4 mg Risperidone): −6.0
LS Mean Change from Baseline on Day 28 Total PANSS (±SE) using MMRM/ITT (4 mg Risperidone (2 mg on Day 1, then 4 mg once daily 27 days), N = 75): −13.4 ± 1.7
total PANSS and negative symptoms compared with the Compound of Formula I (risperidone arm, sub-group of patients with depression at baseline): less effective
